Experimental data published in patent publication EP2727916A1, “Neuroprotective multi-target directed drugs” (Universitat Autònoma de Barcelona, priority 2012, dated 2014).
Entries after “also recorded” stand apart in the source; their conditions may differ.

Experiments:
[1] = molecular target: equine serum butyrylcholinesterase (eqBuChE) (Equus caballus, UniProt P81908); test: biochemical; type: biochemical
[2] = molecular target: T1, MAO-A (Rattus norvegicus, UniProt P21396); test: Reversibility study of MAO-A inhibition (centrifugation and washing); type: biochemical
T1 construct: from tissue; host or cells: rat brain homogenate per the methods
T1 sequence (P21396 1-526): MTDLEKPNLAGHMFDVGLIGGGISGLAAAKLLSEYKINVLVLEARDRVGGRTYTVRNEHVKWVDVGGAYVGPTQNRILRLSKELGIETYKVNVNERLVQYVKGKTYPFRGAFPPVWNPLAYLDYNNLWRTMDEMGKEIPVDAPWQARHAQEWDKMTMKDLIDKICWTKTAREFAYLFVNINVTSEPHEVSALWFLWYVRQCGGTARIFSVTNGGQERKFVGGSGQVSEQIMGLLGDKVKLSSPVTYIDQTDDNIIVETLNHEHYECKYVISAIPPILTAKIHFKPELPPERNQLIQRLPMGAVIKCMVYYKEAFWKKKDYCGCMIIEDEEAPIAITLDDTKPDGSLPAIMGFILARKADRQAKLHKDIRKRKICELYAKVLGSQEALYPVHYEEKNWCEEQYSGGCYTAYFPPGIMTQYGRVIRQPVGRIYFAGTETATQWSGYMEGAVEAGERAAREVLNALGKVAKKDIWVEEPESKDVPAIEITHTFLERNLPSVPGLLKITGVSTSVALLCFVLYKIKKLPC
Procedure: (§1) Lineweaver-Burk reciprocal plots of initial velocity and substrate concentrations (0.1-1 mM) are presented. […] Lineweaver-Burk reciprocal plots of initial velocity and substrate concentrations (0.1-1 mM) are presented. […] Lineweaver-Burk reciprocal plots of initial velocity and substrate concentrations (0.1-1 mM) are presented. […] Three consecutive centrifuges were performed with buffer. […] 5 µM). All solution were made using Tris buffer pH7.4. […] 5 µM). All solution were made using Tris buffer pH7.4. […] 5 µM). All solution were made using Tris buffer pH7.4. Spectra were obtained after a Short-time incubation

[3] = molecular target: T2, MAO-B (Rattus norvegicus, UniProt P19643); test: Reversibility study of MAO-B inhibition (centrifugation and washing); type: biochemical
T2 construct: from tissue; host or cells: rat brain homogenate per the methods
T2 sequence (P19643 1-520): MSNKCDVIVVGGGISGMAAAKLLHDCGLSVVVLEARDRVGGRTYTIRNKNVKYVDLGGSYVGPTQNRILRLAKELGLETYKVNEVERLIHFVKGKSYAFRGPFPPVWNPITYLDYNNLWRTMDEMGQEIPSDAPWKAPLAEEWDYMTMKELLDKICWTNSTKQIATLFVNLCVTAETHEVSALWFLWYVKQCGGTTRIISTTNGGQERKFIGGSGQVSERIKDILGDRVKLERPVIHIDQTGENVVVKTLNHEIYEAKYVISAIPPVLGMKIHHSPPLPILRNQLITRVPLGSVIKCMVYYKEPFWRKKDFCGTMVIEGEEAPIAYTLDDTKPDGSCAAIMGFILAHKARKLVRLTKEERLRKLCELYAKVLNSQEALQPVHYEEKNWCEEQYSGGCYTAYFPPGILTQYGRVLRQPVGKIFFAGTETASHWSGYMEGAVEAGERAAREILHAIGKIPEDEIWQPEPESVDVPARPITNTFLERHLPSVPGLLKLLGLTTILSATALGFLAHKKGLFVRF
Procedure: as §1

[4] = molecular target: T2, MAO-B; test: Time-dependence of MAO-B inhibition (pre-incubation times); type: biochemical
Procedure: as §1
Independent inhibition assays were also performed at different pre-incubation periods for both two MAO isoforms (Figure 6). […]

[5] = Metal binding assay, spectrophotometric detection of Fe(III) complex; type: physicochemical; details: 10 µM, Tris buffer pH7.4, Fe2(SO4)3 6.25 and 12.5 µM
Procedure: as §1, with “Spectra were obtained after a Short-time incubation” left out
It is known that 8-quinolinol is a strong chelator for biometals such iron and copper. This is an important precondition for the antioxidative-type drugs because it is the excessive iron stores and iron-mediated generation of free radicals in the brain that are thought to be associated with neurodegenerative diseases. Therefore, only chelators with a higher selectivity for iron over copper are expected to chelate iron instead of copper and have potential neuroprotective effects. […] A spectrophotometric method is used for measurement of the copper/iron-complexes stability constants of the compounds.
The metal binding assay was performed by the spectrophotometric detection of the formation of Fe(III)- and Cu(II)-6 complex.

[6] = molecular target: T3, ratMAO-A (Rattus norvegicus, UniProt P21396); test: Kinetic study of MAO-A inhibition (Lineweaver-Burk plots); type: biochemical; set-up: from tissue; host or cells: rat brain homogenate per the methods
T3 sequence (P21396 1-526): T1 sequence (P21396 1-526)
Procedure: as §1

[7] = molecular target: T4, ratMAO-B (Rattus norvegicus, UniProt P19643); test: Kinetic study of MAO-B inhibition (Lineweaver-Burk plots); type: biochemical; set-up: from tissue; host or cells: rat brain homogenate per the methods
T4 sequence (P19643 1-520): T2 sequence (P19643 1-520)
Procedure: as §1

[8] = molecular target: T4, ratMAO-B; test: MAO-B inhibition, radiometric method of Fowler and Tipton (14C PEA); type: biochemical; set-up: MAO-A and MAO-B activities were determined in rat brain homogenate; from tissue; host or cells: rat brain homogenate per the methods
[9] = 20 µM, pre-incubation times 0-360 min
[10] = Lineweaver-Burk reciprocal plots
[11] = estimated from the slopes of double reciprocal plots

Chain of equine serum butyrylcholinesterase (eqBuChE) (P81908 whole entry): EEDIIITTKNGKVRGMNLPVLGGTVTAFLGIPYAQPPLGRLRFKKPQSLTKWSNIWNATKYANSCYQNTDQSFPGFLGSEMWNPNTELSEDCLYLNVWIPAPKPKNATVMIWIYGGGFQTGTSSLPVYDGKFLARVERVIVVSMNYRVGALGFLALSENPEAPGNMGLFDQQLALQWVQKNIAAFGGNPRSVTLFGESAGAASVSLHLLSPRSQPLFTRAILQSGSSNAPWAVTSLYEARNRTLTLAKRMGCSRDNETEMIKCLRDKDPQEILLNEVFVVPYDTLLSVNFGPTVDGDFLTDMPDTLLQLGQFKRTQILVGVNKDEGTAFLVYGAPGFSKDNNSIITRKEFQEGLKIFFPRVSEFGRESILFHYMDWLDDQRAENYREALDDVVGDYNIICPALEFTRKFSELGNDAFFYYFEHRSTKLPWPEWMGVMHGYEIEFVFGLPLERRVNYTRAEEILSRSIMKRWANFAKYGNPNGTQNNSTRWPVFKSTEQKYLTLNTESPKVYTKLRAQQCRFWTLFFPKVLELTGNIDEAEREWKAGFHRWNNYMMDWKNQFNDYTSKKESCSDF

Q: With C#CCN(Cc1ccc(O)c2ncccc12)C(C#N)CCC1CCN(Cc2ccccc2)CC1 (stereo not shown) [Compound 6, 4-(1-benzylpiperidin-4-yl)-2-(((8-hydroxyquinolin-5-yl)methyl)(prop-2-yny)amino)butanenitrile] as the compound, how does the “fold more active than donepezil 1 for eqBuChE inhibition” value [1] read?
A: 4.5 fold

Q: And the IC50 ([1]; 20 minutes incubation at 37°C, mean ± standard error of the mean, read-out: IC50 eqBuChE)?
A: 1630 ± 250 nM

Q: And the “BuChE/ AChE” value ([1]; ratio of IC50 values)?
A: 0.92

Q: What about the “reversibility of MAO-A inhibition” value ([2]; 30 min inhibition (6 at 10 µM, clorgyline 50 nM), three consecutive centrifugations and washings with buffer) of the same compound?
A: reversibly inhibited

Q: What about the MAO-A activity recovering ([2]; inhibited at 10 µM for 30 min, three consecutive centrifuges with buffer, mean ± SEM) of the same compound?
A: 56.5 ± 9.3%

Q: What about the “reversibility of MAO-B inhibition” value ([3]; 30 min inhibition (6 at 20 µM, I-deprenyl 20 nM), three consecutive centrifugations and washings with buffer) of the same compound?
A: reversibly inhibited

Q: What about the MAO-B activity recovering ([3]; inhibited at 20 µM for 30 min, three consecutive centrifuges with buffer, mean ± SEM) of the same compound?
A: 55.8 ± 4.0%

Q: What about the “pre-incubation period to complete MAO-B activity inhibition” value [4, 9] of the same compound?
A: ≥ 180 min

Q: And the “time-dependence of MAO-B inhibition” value [4, 9]?
A: irreversible behaviour; also recorded: time-dependent

Q: And the IC50 ([4]; pre-incubation time 0 min)?
A: 61.7 µM

Q: What about the IC50 ([4]; pre-incubation time 30 min) of the same compound?
A: 9.3 µM

Q: And the IC50 ([4]; pre-incubation time 60 min)?
A: 3.3 µM

Q: And the IC50 ([4]; pre-incubation time 240 min)?
A: 1.2 µM

Q: What about the “formation of Fe(III)-6 complex, UV-vis spectrum change” value ([5]; few minutes after addition) of the same compound?
A: no significative changes in the spectrum were observed

Q: What about the “formation of Fe(III)-6 complex, UV-vis spectrum change” value ([5]; overnight incubation) of the same compound?
A: bathocromic shift of the 240nm-band to the appearance of another one at 250nm

Q: What about the “type of MAO-A inhibition mechanism” value [6, 10] of the same compound?
A: non-competitive inhibition

Q: And the Ki [6, 11]?
A: 8.41 ± 1.32 µM

Q: And the “type of MAO-B inhibition mechanism” value [7, 10]?
A: non-competitive inhibition

Q: What about the Ki [7, 11] of the same compound?
A: 10.8 ± 2.43 µM

Q: And the IC50 [8]?
A: 10.2 ± 0.9 µM

Q: What about the “MAO-B/ MAO-A” value [8] of the same compound?
A: 1.7

Q: And the “fold less active than M-30 for the inhibition of MAO-B” value [8]?
A: 179 fold
